Data taken from patent US10548319B2, “Compositions and methods for synthetic amphiphile-induced changes in plant root morphology” (The Curators of the University of Missouri, priority 2014, dated 2020).
“And” between values parts separate entries of the source, which are not always exact repeats. Equal entries are not always repeated. Where two headings read alike, the source gives them in different places. * marks the point of attachment. (C12)2NCOCH2CH2CO = CCCCCCCCCCCCN(CCCCCCCCCCCC)C(=O)CCC(=O)*; OC7 = heptyl ester (C-terminal), CCCCCCCO*

System: A. thaliana (Col-0) plant
Format: in vivo, Arabidopsis thaliana
Details: for Lateral root density with increasing concentration: 0 μM to 50 μM, FIG. 7; for Change in root morphology: lariat ether 20 μM; for Decrease in primary root length: vs PNS
Text: The effect treating a plant with a composition comprising a synthetic amphiphile on root morphology or other physical characteristics or attributes can be quantitated. For example, a change in primary root length can be determined by measuring the difference, if any, in primary root length of a plant treated with the composition compared to the average of a control sample of plants of the same type grown under identical conditions in the absence of the composition. A change in lateral root density can be determined by comparing the lateral root density of a plant treated with the composition to the average lateral root density of a sample grown under identical conditions in the absence of the composition. Lateral root density can be determined by dividing the number of lateral roots by the length of the primary root. In certain embodiments for any quantitated characteristic or attribute, the average value of the control is the average of a statistically significant population of control plants. For example, in certain illustrative embodiments disclosed herein, three trials of about 20 plants each were used to determine the average of the control.
Illustrative of certain embodiments, approximately 60 plants were grown on PNS media (no additives) and root lengths and the number of lateral roots were recorded for each. The data points were averaged to obtain the following baseline values: primary root length=40.4±3.8 mm and number of lateral roots=6.1±0.8, respectively. The lateral root density was obtained by dividing the number of lateral roots by the length (in mm) of the primary root. The control value was (6.1/[…]=) 0.15.
Test compounds were added to the growth medium as 0.2% by volume DMSO. […]
To make 500 mL PN media, 485 mL doubly distilled (“dd”) H2O was first added to an autoclave beaker. The following salts and nutrients were added to a beaker and mixed well: 5 mL of 250 mM of KPO4 (pH 5.5), 2.5 mL of 1M KNO3, 1 mL of 1M MgSO4, 1 mL of 1M Ca(NO3)2, 0.5 mL of Ferric EDTA (1000× or 49 mM) and 0.5 mL of Micronutrients (1000×). In a 1 L autoclaved bottle, 0.6% (3 g) of bacteriological agar was added, followed by 500 mL solution prepared above. The media was autoclaved using the Liquid-30 program.
PNS plates were used for plating sterile Arabidopsis thaliana (Columbia-0) seeds. A sterile stock of PNS agar was maintained. Sterile sucrose was added to PN media to make PNS media. To make PNS media containing 0.5% sucrose, 5 mL of 50% sucrose (sterile filtered) was added to 500 mL of PN agar and mixed well.
The stored PNS media was liquefied using a water bath and allowed to cool to 55° C. The type of plates, compounds, and concentrations to be used were confirmed while the media cooled. The plates were labeled on the cover and the bottom with all the relevant information. 50 mL sterile centrifuge tubes were used to measure 29,940 μL (29.94 mL) PNS media. A fresh sterile 50 mL tube was used for each plate. The desired amount and concentration of compound was added to the PNS media, mixed by inverting the tube and poured in the plate. Total volume of media and compound in each plate was kept constant at 30 mL. A maximum of 60 μL (0.2% by volume) compound was added per plate. For example: 60 μL of 25 mM compound was added to 29.94 mL PNS media to get final concentration of 50 μM compound in PNS media. Plates were incubated at room temperature for 2 hours before plating seeds on them.
Hands and bench area were washed thoroughly before beginning. Sterilizing solution was prepared in a sterile 15 mL centrifuge tube, by mixing 5 mL of 30% bleach and 5 μL of 10% Triton X-100. A. thaliana Col-0 seeds were added to sterile 1.5 mL micro-centrifuge tube. 500 μL of sterilizing solution (30% bleach+0.01% Triton X-100) was added to the seeds, vortexed for 3 seconds and incubated at room temperature for 8 minutes. After 8 minutes, bleach was removed and 1 mL autoclaved MilliQ water was added. […]

[1] = 100 nM in PNS, positive control
[2] = Table 2, 50 μM in PNS, no unit in table (method: millimeters)
[3] = Table 2, 20 μM in PNS, no unit in table (method: millimeters)

Compound: O=C(O)COc1ccc(Cl)cc1Cl [2,4-D, 2,4-Dichlorophenoxyacetic acid, reference compound]
- Lateral root density [1]: 0.85 and 0.85 ± 0.12
- Number of lateral roots [1]: 3.4±0.6
- Primary root length [1]: 3.9±0.6 mm

Compound: CCCCCC(=O)N1CCOCCOCCN(C(=O)CCCCC)CCOCCOCC1 [C6 lariat ether amide]
- Lateral root density (Table 2, 50 μM): 0.15
- Number lateral roots (Table 2, 50 μM): 5.6
- Percent decrease 1° root (Table 2, 50 μM): 4.9%
- Primary root length [2]: 38.6 mm

Compound: CCCCCCN1CCOCCOCCN(CCCCCC)CCOCCOCC1 [C6 lariat ether]
- Lateral root density (Table 2, 20 μM): 0.18
- Number lateral roots (Table 2, 20 μM): 6.6
- Percent decrease 1° root (Table 2, 20 μM): 5.9%
- Primary root length [3]: 38.3 mm
- Lateral root density (Table 2, 50 μM): 0.14
- Number lateral roots (Table 2, 50 μM): 4.6
- Percent decrease 1° root (Table 2, 50 μM): 18.8%
- Primary root length [2]: 33 mm

Compound: CCCCCCC(=O)N1CCOCCOCCN(C(=O)CCCCCC)CCOCCOCC1 [C7 lariat ether amide]
- Lateral root density (Table 2, 20 μM): 0.21
- Number lateral roots (Table 2, 20 μM): 4.5
- Percent decrease 1° root (Table 2, 20 μM): 45.3%
- Primary root length [3]: 22.9 mm
- Lateral root density (Table 2, 50 μM): 0.65
- Number lateral roots (Table 2, 50 μM): 4.2
- Percent decrease 1° root (Table 2, 50 μM): 82.5%
- Primary root length [2]: 7.3 mm

Compound: CCCCCCCC(=O)N1CCOCCOCCN(C(=O)CCCCCCC)CCOCCOCC1 [C8 lariat ether amide, N,N′-Dioctanoyl-4,13-diaza-18-crown-6]
- Lateral root density (Table 2, 50 μM): 0.17
- Number lateral roots (Table 2, 50 μM): 5.2
- Percent decrease 1° root (Table 2, 50 μM): 23.2%
- Primary root length [2]: 31.2 mm

Compound: CCCCCCCCN1CCOCCOCCN(CCCCCCCC)CCOCCOCC1 [C8 lariat ether, N,N′-Di-n-octyl-4,13-diaza-18-crown-6]
- Lateral root density with increasing concentration: Linear increase in lateral root density
- Lateral root density (Table 2, 20 μM): 0.64
- Number lateral roots (Table 2, 20 μM): 5.1
- Percent decrease 1° root (Table 2, 20 μM): 83.4%
- Primary root length [3]: 6.8 mm
- Lateral root density (Table 2, 50 μM): 1.38
- Number lateral roots (Table 2, 50 μM): 2.2
- Percent decrease 1° root (Table 2, 50 μM): 96.1%
- Primary root length [2]: 1.6 mm
- Change in root morphology: significant change in root morphology

Compound: CCCCCCCCC(=O)N1CCOCCOCCN(C(=O)CCCCCCCC)CCOCCOCC1 [C9 lariat ether amide]
- Lateral root density (Table 2, 20 μM): 0.19
- Number lateral roots (Table 2, 20 μM): 1.6
- Percent decrease 1° root (Table 2, 20 μM): 78.2%
- Primary root length [3]: 9.2 mm
- Lateral root density (Table 2, 50 μM): 0.13
- Number lateral roots (Table 2, 50 μM): 2
- Percent decrease 1° root (Table 2, 50 μM): 62.6%
- Primary root length [2]: 15.7 mm

Compound: CCCCCCCCCC(=O)N1CCOCCOCCN(C(=O)CCCCCCCCC)CCOCCOCC1 [C10 lariat ether amide, N,N′-Didecanoyl-4,13-diaza-18-crown-6]
- Lateral root density (Table 2, 50 μM): 0.19
- Number lateral roots (Table 2, 50 μM): 0.6
- Percent decrease 1° root (Table 2, 50 μM): 92.4%
- Primary root length [2]: 3.1 mm

Compound: CCCCCCCCCCN1CCOCCOCCN(CCCCCCCCCC)CCOCCOCC1 [C10 lariat ether, N,N′-Didecyl-4,13-diaza-18-crown-6]
- Lateral root density with increasing concentration: Linear increase in lateral root density
- Lateral root density (Table 2, 20 μM): 1.14
- Number lateral roots (Table 2, 20 μM): 4
- Percent decrease 1° root (Table 2, 20 μM): 91.4%
- Primary root length [3]: 3.5 mm
- Lateral root density (Table 2, 50 μM): 1.75
- Number lateral roots (Table 2, 50 μM): 3.5
- Percent decrease 1° root (Table 2, 50 μM): 95.1%
- Primary root length [2]: 2 mm
- Change in root morphology: significant change in root morphology

Compound: CCCCCCCCCCCC(=O)N1CCOCCOCCN(C(=O)CCCCCCCCCCC)CCOCCOCC1 [C12 lariat ether amide]
- Lateral root density (Table 2, 50 μM): 0.18
- Number lateral roots (Table 2, 50 μM): 7
- Percent decrease 1° root (Table 2, 50 μM): 1.73%
- Primary root length [2]: 39.9 mm

Compound: CCCCCCCCCCCCN1CCOCCOCCN(CCCCCCCCCCCC)CCOCCOCC1 [C12 lariat ether]
- Lateral root density (Table 2, 20 μM): 0.17
- Number lateral roots (Table 2, 20 μM): 6
- Percent decrease 1° root (Table 2, 20 μM): 1.3%
- Primary root length [3]: 40.1 mm
- Lateral root density (Table 2, 50 μM): 0.15
- Number lateral roots (Table 2, 50 μM): 4.9
- Percent decrease 1° root (Table 2, 50 μM): 11.5%
- Primary root length [2]: 35.9 mm

Compound: CCCCCCCCCCCCC(=O)N1CCOCCOCCN(C(=O)CCCCCCCCCCCC)CCOCCOCC1 [C13 lariat ether amide]
- Lateral root density (Table 2, 20 μM): 0.14
- Number lateral roots (Table 2, 20 μM): 5.1
- Percent decrease 1° root (Table 2, 20 μM): 11.8%
- Primary root length [3]: 36.9 mm
- Lateral root density (Table 2, 50 μM): 0.14
- Number lateral roots (Table 2, 50 μM): 4.2
- Percent decrease 1° root (Table 2, 50 μM): 14.9%
- Primary root length [2]: 35.6 mm

Compound: c1ccc(CN2CCOCCOCCN(CCCCCCCCCCCCCCN3CCOCCOCCN(CCCCCCCCCCCCCCN4CCOCCOCCN(Cc5ccccc5)CCOCCOCC4)CCOCCOCC3)CCOCCOCC2)cc1 [C14 hydraphile (2)]
- Number of lateral roots (hydraphile 20 μM): 6.2±0.3
- Primary root length (hydraphile 20 μM in PNS media): 14 ± 2 mm
- Primary root length (hydraphile 20 μM in PNS media, listed as compound 2): 14±2 mm
- Decrease in primary root length (hydraphile 20 μM): 63%
- Increase in lateral root density (hydraphile 20 μM, vs control): 4 fold
- Lateral root density (hydraphile 20 μM, lateral roots divided by primary root length): 0.48±0.08
- Primary root length (hydraphile 50 μM in PNS media): 0.7 ± 0.2 mm
- Primary root length (hydraphile 50 μM in PNS media, listed as compound 2): 0.7±0.2 mm
- Decrease in primary root length (hydraphile 50 μM): 98%

Compound: CCCCCCCCCCCCCC(=O)N1CCOCCOCCN(C(=O)CCCCCCCCCCCCC)CCOCCOCC1 [C14 lariat ether amide]
- Lateral root density (Table 2, 50 μM): 0.21
- Number lateral roots (Table 2, 50 μM): 8.6
- Percent decrease 1° root (Table 2, 50 μM): 0%
- Primary root length [2]: 41.9 mm

Compound: CCCCCCCCCCCCCCN1CCOCCOCCN(CCCCCCCCCCCCCC)CCOCCOCC1 [C14 lariat ether]
- Lateral root density (Table 2, 20 μM): 0.17
- Number lateral roots (Table 2, 20 μM): 6.9
- Percent decrease 1° root (Table 2, 20 μM): 0%
- Primary root length [3]: 41.5 mm
- Lateral root density (Table 2, 50 μM): 0.21
- Number lateral roots (Table 2, 50 μM): 4.9
- Percent decrease 1° root (Table 2, 50 μM): 48.4%
- Primary root length [2]: 20.9 mm

Compound: c1ccc(CN2CCOCCOCCN(CCCCCCCCCCCCCCCCN3CCOCCOCCN(CCCCCCCCCCCCCCCCN4CCOCCOCCN(Cc5ccccc5)CCOCCOCC4)CCOCCOCC3)CCOCCOCC2)cc1 [C16 hydraphile (3)]
- Primary root length (hydraphile 10 μM in PNS media): 23 ± 0.4 mm
- Primary root length (hydraphile 10 μM in PNS media, listed as compound 3): 23±0.4 mm
- Decrease in primary root length (hydraphile 10 μM): 39%
- Primary root length (hydraphile 20 μM in PNS media): 15 ± 0.5 mm
- Primary root length (hydraphile 20 μM in PNS media, listed as compound 3): 15±0.5 mm
- Decrease in primary root length (hydraphile 20 μM): 61%
- Effect on growth / root development (hydraphile 50 μM in PNS media): inhibit the primary root development
- Primary root length (hydraphile 50 μM in PNS media): 4 ± 0.2 mm
- Primary root length (hydraphile 50 μM in PNS media, listed as compound 3): 4±0.2 mm
- Decrease in primary root length (hydraphile 50 μM): 90%

Compound: (C12)2NCOCH2CH2CO-AAAPGGG-OC7 ({(C12)2NCOCH2CH2CO}-AAAPGGG-OC7; SMILES CCCCCCCCCCCCN(CCCCCCCCCCCC)C(=O)CCC(=O)N[C@@H](C)C(=O)N[C@@H](C)C(=O)N[C@@H](C)C(=O)N1CCC[C@H]1C(=O)NCC(=O)NCC(=O)NCC(=O)OCCCCCCC) [Compound 10]
- Lateral root density (SAT 50 μM in PNS): 0.12
- Number of lateral roots (SAT 50 μM in PNS): 3.4
- Primary root length (SAT 50 μM in PNS): 28.4 mm
